“And” between values parts separate entries of the source, which are not always exact repeats. Equal entries are not always repeated. Toxic doses and inconclusive results are not listed.
Tested on: BDF1 mice, P388 leukemia ip, median survival T/C
Experiment: NCI In Vivo Anticancer Drug Screen. Data for tumor model P388 Leukemia (intraperitoneal) in B6D2F1 (BDF1) mice
Conditions: endpoint: median survival time, higher = longer survival
How it was run: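 Steps: implant the tumour, treat one group with compound and another with vehicle, record survival, then divide treated by control.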

[1] = dose: 100.0 mg/kg/injection, schedule: Q04DX003 (ip), vehicle: saline with Tween-80
[2] = dose: 200.0 mg/kg/injection, schedule: Q04DX003 (ip), vehicle: saline with Tween-80
[3] = dose: 400.0 mg/kg/injection, schedule: Q04DX003 (ip), vehicle: saline with Tween-80
[4] = dose: 100.0 mg/kg/injection, schedule: Q01DX001 (ip), vehicle: saline with Tween-80
[5] = dose: 200.0 mg/kg/injection, schedule: Q01DX001 (ip), vehicle: saline with Tween-80
[6] = dose: 400.0 mg/kg/injection, schedule: Q01DX001 (ip), vehicle: saline with Tween-80
[7] = dose: 12.5 mg/kg/injection, schedule: Q01DX009 (ip), vehicle: saline
[8] = dose: 25.0 mg/kg/injection, schedule: Q01DX009 (ip), vehicle: saline
[9] = dose: 50.0 mg/kg/injection, schedule: Q01DX009 (ip), vehicle: saline
[10] = dose: 50.0 mg/kg/injection, schedule: Q01DX005 (ip), vehicle: Klucel (hydroxypropylcellulose) (HPC)
[11] = dose: 100.0 mg/kg/injection, schedule: Q01DX009 (ip), vehicle: saline with Tween-80
[12] = dose: 200.0 mg/kg/injection, schedule: Q01DX009 (ip), vehicle: saline with Tween-80
[13] = dose: 400.0 mg/kg/injection, schedule: Q01DX009 (ip), vehicle: saline with Tween-80
[14] = dose: 100.0 mg/kg/injection, schedule: Q01DX001 (ip), vehicle: Klucel (hydroxypropylcellulose) (HPC)
[15] = dose: 200.0 mg/kg/injection, schedule: Q01DX001 (ip), vehicle: Klucel (hydroxypropylcellulose) (HPC)
[16] = dose: 400.0 mg/kg/injection, schedule: Q01DX001 (ip), vehicle: Klucel (hydroxypropylcellulose) (HPC)

Structure (SMILES): CN[C@H]1CCc2cc(OC)c(OC)c(OC)c2-c2ccc(OC)c(=O)cc21
- T/C (dose: 0.63 mg/kg/injection, schedule: Q01DX010 (ip), vehicle: saline): 104 % of control
- T/C (dose: 1.25 mg/kg/injection, schedule: Q01DX009 (ip), vehicle: saline): 117 % of control
- T/C (dose: 1.25 mg/kg/injection, schedule: Q01DX010 (ip), vehicle: saline): 122 % of control
- T/C (dose: 2.5 mg/kg/injection, schedule: Q01DX010 (ip), vehicle: saline): 122 % of control
- T/C (dose: 5.0 mg/kg/injection, schedule: Q01DX010 (ip), vehicle: saline): 150 % of control
- T/C (dose: 10.0 mg/kg/injection, schedule: Q01DX009 (ip), vehicle: saline): 93 % of control

Structure (SMILES): CCC(=O)O[C@H]1CC[C@H]2[C@@H]3C[C@H](F)C4=CC(=O)CC[C@]4(C)[C@H]3CC[C@]12C
- T/C [1]: 95 % of control
- T/C [2]: 95 % of control
- T/C (dose: 400.0 mg/kg/injection, schedule: Q01DX009 (ip), vehicle: saline sonified): 109 % of control
- T/C [3]: 109 % of control

Structure (SMILES): NC(=O)c1ncccc1C(=O)O
- T/C [4]: 103 % of control
- T/C [5]: 100 % of control
- T/C [6]: 96 % of control

Structure (SMILES): CCc1cc(O)c(Cl)c(C)c1Cl
- T/C (dose: 50.0 mg/kg/injection, schedule: Q01DX009 (ip), vehicle: gum acacia): 119 % of control
- T/C (dose: 50.0 mg/kg/injection, schedule: Q04DX003 (ip), vehicle: gum acacia): 111 % of control
- T/C (dose: 100.0 mg/kg/injection, schedule: Q01DX009 (ip), vehicle: gum acacia): 111 % of control
- T/C (dose: 100.0 mg/kg/injection, schedule: Q04DX003 (ip), vehicle: gum acacia): 100 % of control
- T/C (dose: 200.0 mg/kg/injection, schedule: Q04DX003 (ip), vehicle: gum acacia): 100 % of control

Structure (SMILES): COC(=O)c1[nH]c(=O)[nH]c(=O)c1F
- T/C (dose: 25.0 mg/kg/injection, schedule: Q04DX003 (ip), vehicle: saline with Tween-80): 113 % of control
- T/C [1]: 122 % of control
- T/C [2]: 90 % of control

Structure (SMILES): CC1(C)N=C(N)N=C(N)N1c1ccc(F)c(C(F)(F)F)c1
- T/C (dose: 3.12 mg/kg/injection, schedule: Q01DX009 (ip), vehicle: saline): 120 % of control
- T/C [7]: 169 % of control and 189 % of control
- T/C (dose: 16.0 mg/kg/injection, schedule: Q01DX009 (ip), vehicle: saline): 216 % of control
- T/C [8]: 245 % of control and 87 % of control and 191 % of control
- T/C [9]: 216 % of control

Structure (SMILES): O=C1OC2(CCCCC2)Cc2oc3ccccc3c(=O)c21
- T/C [10]: 87 % of control
- T/C (dose: 200.0 mg/kg/injection, schedule: Q01DX005 (ip), vehicle: Klucel (hydroxypropylcellulose) (HPC)): 92 % of control

Structure (SMILES): COC(C(OC)N1CCOCC1)N1CCOCC1 (configuration not stated)
- T/C (dose: 50.0 mg/kg/injection, schedule: Q04DX003 (ip), vehicle: saline with Tween-80): 104 % of control
- T/C [11]: 91 % of control
- T/C [1]: 95 % of control
- T/C [12]: 95 % of control
- T/C [2]: 100 % of control
- T/C [13]: 95 % of control
- T/C [3]: 100 % of control

Structure (SMILES): CN(C)[C@@H]1C(=O)C(C(=O)NCN2CCN(C(=N)N=C(N)N)CC2)=C(O)[C@@]2(O)C(=O)C3=C(O)c4c(O)cccc4[C@@](C)(O)[C@H]3C[C@@H]12
- T/C (dose: 0.1 mg/kg/injection, schedule: Q04DX003 (ip), vehicle: saline): 124 % of control
- T/C (dose: 1.0 mg/kg/injection, schedule: Q04DX003 (ip), vehicle: saline): 120 % of control
- T/C (dose: 5.0 mg/kg/injection, schedule: Q04DX003 (ip), vehicle: saline): 155 % of control

Structure (SMILES): COc1cc(C=Nc2cc(Cl)c(Cl)c(Cl)c2)ccc1N(CCCl)CCCl
- T/C (dose: 1.8 mg/kg/injection, schedule: Q01DX009 (ip), vehicle: Klucel (hydroxypropylcellulose) (HPC)): 150 % of control
- T/C (dose: 2.7 mg/kg/injection, schedule: Q01DX009 (ip), vehicle: Klucel (hydroxypropylcellulose) (HPC)): 158 % of control
- T/C (dose: 3.12 mg/kg/injection, schedule: Q01DX009 (ip), vehicle: Klucel (hydroxypropylcellulose) (HPC)): 195 % of control
- T/C (dose: 4.1 mg/kg/injection, schedule: Q01DX009 (ip), vehicle: Klucel (hydroxypropylcellulose) (HPC)): 237 % of control and 163 % of control
- T/C (dose: 6.25 mg/kg/injection, schedule: Q01DX009 (ip), vehicle: Klucel (hydroxypropylcellulose) (HPC)): 227 % of control and 240 % of control and 208 % of control
- T/C (dose: 9.3 mg/kg/injection, schedule: Q01DX009 (ip), vehicle: Klucel (hydroxypropylcellulose) (HPC)): 254 % of control and 150 % of control
- T/C (dose: 12.5 mg/kg/injection, schedule: Q01DX009 (ip), vehicle: Klucel (hydroxypropylcellulose) (HPC)): 204 % of control
- T/C (dose: 25.0 mg/kg/injection, schedule: Q01DX009 (ip), vehicle: Klucel (hydroxypropylcellulose) (HPC)): 120 % of control
- T/C (dose: 30.0 mg/kg/injection, schedule: Q04DX003 (ip), vehicle: Klucel (hydroxypropylcellulose) (HPC)): 186 % of control
- T/C (dose: 45.0 mg/kg/injection, schedule: Q04DX003 (ip), vehicle: Klucel (hydroxypropylcellulose) (HPC)): 272 % of control

Structure (SMILES): C/C=C1\C[N+]2(C)CCC34c5ccccc5NC32C(O)CC1C4(CO)C(=O)OC (configuration not stated)
- T/C (dose: 2.0 mg/kg/injection, schedule: Q01DX009 (ip), vehicle: saline with Tween-80): 98 % of control
- T/C (dose: 4.0 mg/kg/injection, schedule: Q01DX009 (ip), vehicle: saline with Tween-80): 93 % of control
- T/C (dose: 8.0 mg/kg/injection, schedule: Q01DX009 (ip), vehicle: saline with Tween-80): 94 % of control

Structure (SMILES): O=C1C(N2CCCC2)=C(N2CC2)C(=O)C(N2CCCC2)=C1N1CC1
- T/C (dose: 0.25 mg/kg/injection, schedule: Q01DX009 (ip), vehicle: saline): 172 % of control

Structure (SMILES): CCCCCC(=O)O[C@]1(C(C)=O)CC[C@H]2[C@@H]3CCC4=CC(=O)CC[C@]4(C)[C@H]3CC[C@@]21C
- T/C (dose: 44.0 mg/kg/injection, schedule: Q01DX009 (ip), vehicle: saline with Tween-80): 105 % of control
- T/C (dose: 66.0 mg/kg/injection, schedule: Q01DX009 (ip), vehicle: saline with Tween-80): 110 % of control
- T/C [11]: 90 % of control
- T/C [1]: 100 % of control
- T/C (dose: 150.0 mg/kg/injection, schedule: Q01DX009 (ip), vehicle: saline with Tween-80): 100 % of control
- T/C [12]: 105 % of control
- T/C [2]: 100 % of control
- T/C [13]: 100 % of control
- T/C [3]: 100 % of control

Structure (SMILES): Cc1cc(C)c(C)c(C(O)(C(=O)O)c2ccccc2)c1 (configuration not stated)
- T/C [11]: 87 % of control
- T/C [12]: 104 % of control

Structure (SMILES): O=C(CC(O)(C(F)(F)F)C(F)(F)F)c1cccc(Cl)c1
- T/C [4]: 113 % of control
- T/C [5]: 113 % of control
- T/C [6]: 118 % of control

Structure (SMILES): Cc1cc(NC(=O)NCCOc2ccc(N3C(N)=NC(N)=NC3(C)C)cc2Cl)ccc1S(=O)(=O)F
- T/C [7]: 100 % of control
- T/C [8]: 113 % of control
- T/C [9]: 122 % of control

Structure (SMILES): COc1ccc(/C=C(/C#N)C(N)=O)cc1Br
- T/C [14]: 100 % of control
- T/C (dose: 100.0 mg/kg/injection, schedule: Q01DX009 (ip), vehicle: saline): 100 % of control
- T/C (dose: 100.0 mg/kg/injection, schedule: Q04DX003 (ip), vehicle: saline): 100 % of control
- T/C [15]: 113 % of control
- T/C (dose: 200.0 mg/kg/injection, schedule: Q01DX009 (ip), vehicle: saline): 95 % of control
- T/C (dose: 200.0 mg/kg/injection, schedule: Q04DX003 (ip), vehicle: saline): 120 % of control
- T/C [16]: 109 % of control
- T/C (dose: 400.0 mg/kg/injection, schedule: Q01DX009 (ip), vehicle: saline): 90 % of control
- T/C (dose: 400.0 mg/kg/injection, schedule: Q04DX003 (ip), vehicle: saline): 120 % of control

Structure (SMILES): CCCCCCCCCCOc1ccc(C=O)c(OC)c1
- T/C [14]: 100 % of control
- T/C [15]: 100 % of control
- T/C [16]: 104 % of control

Structure (SMILES): O=C1c2ccccc2C(=O)N1CCCn1c2ccccc2c2cnccc21
- T/C [11]: 105 % of control
- T/C [1]: 95 % of control
- T/C [12]: 90 % of control
- T/C [2]: 100 % of control
- T/C [13]: 110 % of control
- T/C [3]: 90 % of control

Structure (SMILES): CN=C(NCCCOC)c1ccc(NC(=O)Nc2ccc(NC(=O)Nc3ccc(C(=NC)NCCCOC)cc3)cc2)cc1
- T/C (dose: 6.25 mg/kg/injection, schedule: Q01DX005 (ip), vehicle: Klucel (hydroxypropylcellulose) (HPC)): 104 % of control
- T/C (dose: 12.5 mg/kg/injection, schedule: Q01DX005 (ip), vehicle: Klucel (hydroxypropylcellulose) (HPC)): 108 % of control
- T/C (dose: 25.0 mg/kg/injection, schedule: Q01DX005 (ip), vehicle: Klucel (hydroxypropylcellulose) (HPC)): 115 % of control
- T/C [10]: 121 % of control
- T/C (dose: 100.0 mg/kg/injection, schedule: Q01DX005 (ip), vehicle: Klucel (hydroxypropylcellulose) (HPC)): 107 % of control
